Experimental data taken from patent US20200030284A1, “MEDICAL USE OF ARTEMISININ DERIVATIVE FOR TREATING INFLAMMATORY BOWEL DISEASE” (SHANGHAI INSTITUTE OF MATERIA MEDICA,CHINESE ACADEMY OF …, priority 2017, published 2020).
Structures can show the parent of a compound that is named as a salt.

Assays:
Type in all cases: in vivo, Balb/c mice
[1] = test system: macrophages and neutrophils in mesenteric lymph nodes and spleen of DSS-induced colitis mice; test: Inflammatory cell detection by flow cytometry in mesenteric lymph nodes and spleen; settings: 10 mg/kg intragastric, FIG. 3A and 3B
Description: FIG. 3 is graphs showing the results of flow cytometry analysis, in which a single cell suspension was prepared from mesenteric lymph nodes and spleen of mice in various groups taken out at the end of the experiment, and the cells were labeled with the corresponding fluorescent antibody. FIG. 3A is for the isolated mesenteric lymph node cells, and FIG. 3B is for the isolated spleen lymphocytes, they were stained withanti-F4/80 antibody+anti-CD11b antibody (double positive cells were recognized as macrophages), and with anti-Gr-1 antibody+anti-CD11 b antibody (double positive cells were identified as neutrophils) respectively.
(§1) 1. Mice were randomly divided into a normal control group, a model group, a cyclosporin A (CsA) (20 mg/kg) treatment group, a 5-aminosalicylic acid (5-ASA) (50 mg/kg) treatment group, and the artemisinin derivative having anti-inflammatory immunosuppressive activity SM934, SM905, SM933 and SM735 (10 mg/kg each) treatment groups, with 8 mice per group. Except for the mice in the normal control group, for the mice in the other groups including the model group, the cyclosporine A treatment group, the 5-aminosalicylic acid treatment group, and the 4 artemisinin derivative treatment groups, 5% DSS was added to the drinking water for 7 consecutive days for induction of the intestinal inflammation model.
2. […]

[2] = test system: CD11b+ monocytes in colon tissue of DSS-induced colitis mice; test: Inflammatory cell detection in colon cryosections by fluorescence confocal microscopy; settings: middle segment of colon, 10 mg/kg intragastric, FIG. 4
Description: FIG. 4 is photographs showing the photographing and analyzing results under fluorescence confocal microscopy in which, after the middle segments of colons of mice in various groups were cryosectioned, the nucleus were stained with DAPI fluorescent antibody, and the mononuclear lymphocytes were stained with anti-CD11b antibody.
as §1
2. […]
2. The middle segment of the colon was cryosectioned, stained with the corresponding fluorescent antibody, photographed under a fluorescence confocal microscope and analyzed.

[3] = test system: pro-inflammatory cytokines in colon tissue of DSS-induced colitis mice; test: Detection of pro-inflammatory cytokine levels in colon tissue by ELISA; settings: colon homogenate, per unit of total protein, 10 mg/kg intragastric, FIG. 5
Description: as §1
2. From the start of the induction to the end of the experiment, mice in the various treatment groups were given cyclosporine A, 5-aminosalicylic acid 5-ASA or4 artemisinin derivatives (10 mg/kg) respectively by intragastric administration to conduct a therapeutic intervention.
[IV] Detection of Pro-Inflammatory Cytokine Levels in Colon Tissue
1. […] After centrifugation, the protein concentration in the homogenate supernatant was quantified with a BCA kit.
2. ELISA was used to detect the content of pro-inflammatory cytokine in the supernatant, which was expressed as the content of cytokine per unit of total protein.

C[C@@H]1CCC2[C@@H](C)[C@@H](OCCN)O[C@H]3O[C@@]4(C)CCC1[C@@]23OO4 (stereo partly drawn) [SM934, β-aminoarteether maleate]
reduced: proportion of macrophages (F4/80+ and CD11b+ double positive cells) [1] | proportion of neutrophils (Gr-1+ and CD11b+ double positive cells) [1] | infiltration of monocytes (CD11b+ cells) in colon tissue [2] | levels of pro-inflammatory cytokines in colon tissue [3]
